The values that follow come from ChEMBL document CHEMBL5154766, “Synthesis, bioevaluation and molecular dynamics of pyrrolo-pyridine benzamide derivatives as potential antitumor agents in vitro and in vivo” (Eur J Med Chem, 2022).

The first assay deals with MCF7. The experiment in a line: Antiproliferative activity against human MCF7 cells expressing c-Met after 48 hrs by MTT assay. It counts as functional, cell-based. To be noted: MCF7, 48 h.
The term IC50 denotes the midpoint of a concentration-inhibition curve. Read a low IC50 as higher potency. Regarding `COc1ccc(-n2cc(C(=O)Nc3ccc(Oc4ccnc5[nH]ccc45)cc3)c(=O)c3cccnc32)cc1`, 47.2 µM corresponded to half-maximal inhibition (IC50).
The same measure, in the same setting: next, `O=C(Nc1ccc(Oc2ccnc3[nH]ccc23)c(F)c1)c1cn(-c2ccc(Br)cc2F)c2ncccc2c1=O`: 55.6 µM.
`COc1ccc(-n2cc(C(=O)Nc3ccc(Oc4ccnc5c4ccn5C)cc3)c(=O)c3cccnc32)cc1` had an IC50 of 44.9 µM.
On the same count and under the same terms, the same measure for `Cn1ccc2c(Oc3ccc(NC(=O)c4cn(-c5ccc(Br)cc5)c5ncccc5c4=O)cc3)ccnc21`: 29.1 µM.

The next assay has as its system HeLa. The experiment in a line: Antiproliferative activity against human HeLa cells expressing c-Met after 48 hrs by MTT assay. In kind it is functional, cell-based.
Conditions: not given
Background: Formazan colour is commonly taken as a measure of viable cells.
Compound `COc1ccc(-n2cc(C(=O)Nc3ccc(Oc4ccnc5[nH]ccc45)cc3)c(=O)c3cccnc32)cc1` registered an IC50 of 95.4 µM.
Still for that read-out and setting: the same measure for `Cn1ccc2c(Oc3ccc(NC(=O)c4cn(-c5ccc(Br)cc5)c5ncccc5c4=O)cc3)ccnc21`: 50.2 µM.

Another assay concerns A549. The experiment in a line: Antiproliferative activity against human A549 cells expressing c-Met after 48 hrs by MTT assay. It counts as functional, cell-based. As to conditions: A549, 48 h.
`COc1ccc(-n2cc(C(=O)Nc3ccc(Oc4ccnc5[nH]ccc45)cc3)c(=O)c3cccnc32)cc1` gave an IC50 of 26 µM.
`O=C(Nc1ccc(Oc2ccnc3[nH]ccc23)c(F)c1)c1cn(-c2ccc(Br)cc2F)c2ncccc2c1=O` showed an IC50 of 20.1 µM.
Still for that read-out and setting: next, `COc1ccc(-n2cc(C(=O)Nc3ccc(Oc4ccnc5c4ccn5C)cc3)c(=O)c3cccnc32)cc1`: 30.6 µM; `Cn1ccc2c(Oc3ccc(NC(=O)c4cn(-c5ccc(Br)cc5)c5ncccc5c4=O)cc3)ccnc21`: 10.8 µM.
